Measured values published in ChEMBL document CHEMBL4699516, “S-Bridged Thioether and Structure-Diversified Angucyclinone Derivatives from the South China Sea-Derived Micromonospora echinospora SCSIO 04089” (J Nat Prod, 2020).
Values after ≈ are worked out from the molar mass of the structure shown.

Columns and labels:
Staphylococcus aureus [1] = assay: Antibacterial activity against methicillin-resistant Staphylococcus aureus shhs-A1 assessed as reduction in bacterial growth after 16 hrs by broth microdilution method; format: functional
SF-268 = assay: Cytotoxicity against human SF-268 cells assessed as reduction in cell viability after 72 hrs by SRB assay; format: functional, cell-based; details: SF-268, 72 h
Micrococcus luteus = assay: Antibacterial activity against Micrococcus luteus SCSIO ML01 assessed as reduction in bacterial growth after 16 hrs by broth microdilution method; format: functional
Staphylococcus aureus [2] = assay: Antibacterial activity against Staphylococcus aureus ATCC 29213 assessed as reduction in bacterial growth after 16 hrs by broth microdilution method; format: functional
MCF7 = assay: Cytotoxicity against human MCF7 cells assessed as reduction in cell viability after 72 hrs by SRB assay; format: functional, cell-based; details: MCF7, 72 h
Bacillus thuringiensis = assay: Antibacterial activity against Bacillus thuringiensis SCSIO BT01 assessed as reduction in bacterial growth after 16 hrs by broth microdilution method; format: functional
Bacillus subtilis = assay: Antibacterial activity against […] 1064 assessed as reduction in bacterial growth after 16 hrs by broth microdilution method; format: functional
HepG2 = assay: Cytotoxicity against human HepG2 cells assessed as reduction in cell viability after 72 hrs by SRB assay; format: functional, cell-based; details: HepG2, 72 h

## CCc1cc(O)c(C2=C(O)C(=O)c3c(O)cccc3C2=O)c(C(=O)OC)c1
Staphylococcus aureus [1]
  MIC: > 64 µg/mL
SF-268
  IC50: > 100 µM
Micrococcus luteus
  MIC: > 64 µg/mL
Staphylococcus aureus [2]
  MIC: > 64 µg/mL
MCF7
  IC50: > 100 µM
Bacillus thuringiensis
  MIC: > 64 µg/mL
Bacillus subtilis
  MIC: > 64 µg/mL
HepG2
  IC50: > 100 µM

## CC[C@]12CC(=O)[C@@]3(O)[C@](O)(CC(O)=C4C(=O)c5c(O)cccc5C(=O)[C@@]43S1)C2
Staphylococcus aureus [1]
  MIC: > 64 µg/mL
SF-268
  IC50: > 100 µM
Micrococcus luteus
  MIC: > 64 µg/mL
Staphylococcus aureus [2]
  MIC: > 64 µg/mL
MCF7
  IC50: > 100 µM
Bacillus thuringiensis
  MIC: > 64 µg/mL
Bacillus subtilis
  MIC: > 64 µg/mL
HepG2
  IC50: > 100 µM

## CCc1cc(O)c2c(c1C(C)=O)C(=O)c1cccc(O)c1C2=O
Staphylococcus aureus [1]
  MIC: > 64 µg/mL
SF-268
  IC50: 7.6 µM
Micrococcus luteus
  MIC: > 64 µg/mL
Staphylococcus aureus [2]
  MIC: > 64 µg/mL
MCF7
  IC50: 10.4 µM
Bacillus thuringiensis
  MIC: > 64 µg/mL
Bacillus subtilis
  MIC: > 64 µg/mL
HepG2
  IC50: 8.1 µM

## CCc1cc(O)c2c3c(ncc2c1)C(=O)c1c(O)cccc1C3=O
Staphylococcus aureus [1]
  MIC: 2 µg/mL (≈ 6.26 µM)
SF-268
  IC50: 5.4 µM
Micrococcus luteus
  MIC: 4 µg/mL (≈ 12.5 µM)
Staphylococcus aureus [2]
  MIC: 2 µg/mL (≈ 6.26 µM)
MCF7
  IC50: 6.8 µM
Bacillus thuringiensis
  MIC: 4 µg/mL (≈ 12.5 µM)
Bacillus subtilis
  MIC: 4 µg/mL (≈ 12.5 µM)
HepG2
  IC50: 1.4 µM

## CCc1cc(O)c2c(c1)C(SC[C@H](NC(C)=O)C(=O)O)=C1C(=O)c3c(O)cccc3C(O)=C12
Staphylococcus aureus [1]
  MIC: > 64 µg/mL
SF-268
  IC50: > 100 µM
Micrococcus luteus
  MIC: > 64 µg/mL
Staphylococcus aureus [2]
  MIC: > 64 µg/mL
MCF7
  IC50: > 100 µM
Bacillus thuringiensis
  MIC: > 64 µg/mL
Bacillus subtilis
  MIC: > 64 µg/mL
HepG2
  IC50: > 100 µM

## CCc1cc(O)c2c3c([nH]c(=O)c2c1)C(=O)c1c(O)cccc1C3=O
Staphylococcus aureus [1]
  MIC: 64 µg/mL (≈ 191 µM)
SF-268
  IC50: 18 µM
Micrococcus luteus
  MIC: > 64 µg/mL
Staphylococcus aureus [2]
  MIC: 64 µg/mL (≈ 191 µM)
MCF7
  IC50: 52 µM
Bacillus thuringiensis
  MIC: > 64 µg/mL
Bacillus subtilis
  MIC: > 64 µg/mL
HepG2
  IC50: 4 µM

## CCc1cc(O)c2c3c(c(O)cc2c1)C(=O)c1c(O)cccc1C3=O
Staphylococcus aureus [1]
  MIC: > 64 µg/mL
SF-268
  IC50: 16.9 µM
Micrococcus luteus
  MIC: 8 µg/mL (≈ 23.9 µM)
Staphylococcus aureus [2]
  MIC: 4 µg/mL (≈ 12 µM)
MCF7
  IC50: 14.9 µM
Bacillus thuringiensis
  MIC: > 64 µg/mL
Bacillus subtilis
  MIC: > 64 µg/mL
HepG2
  IC50: 25.3 µM

## CCc1cc(C(=O)O)c2c3c(oc2c1)C(=O)c1c(O)cccc1C3=O
Staphylococcus aureus [1]
  MIC: > 64 µg/mL
SF-268
  IC50: > 100 µM
Micrococcus luteus
  MIC: > 64 µg/mL
Staphylococcus aureus [2]
  MIC: > 64 µg/mL
MCF7
  IC50: > 100 µM
Bacillus thuringiensis
  MIC: > 64 µg/mL
Bacillus subtilis
  MIC: > 64 µg/mL
HepG2
  IC50: > 100 µM

## CC[C@]1(O)CC(=O)c2c(cc(O)c3c2C(=O)c2cccc(O)c2C3=O)C1
Staphylococcus aureus [1]
  MIC: > 64 µg/mL
SF-268
  IC50: 9 µM
Micrococcus luteus
  MIC: > 64 µg/mL
Staphylococcus aureus [2]
  MIC: > 64 µg/mL
MCF7
  IC50: 12.5 µM
Bacillus thuringiensis
  MIC: > 64 µg/mL
Bacillus subtilis
  MIC: > 64 µg/mL
HepG2
  IC50: 10.3 µM

## CCc1cc(O)c2c(c1)C(N)=C1C(=O)c3c(O)cccc3C(=O)C12CC(C)=O (racemic)
Staphylococcus aureus [1]
  MIC: > 64 µg/mL
SF-268
  IC50: > 100 µM
Micrococcus luteus
  MIC: > 64 µg/mL
Staphylococcus aureus [2]
  MIC: > 64 µg/mL
MCF7
  IC50: > 100 µM
Bacillus thuringiensis
  MIC: > 64 µg/mL
Bacillus subtilis
  MIC: > 64 µg/mL
HepG2
  IC50: > 100 µM

## Cc1cn([C@H]2C[C@H](O)[C@@H](COP(=O)(O)O)O2)c(=O)[nH]c1=O [THYMIDINE MONOPHOSPHATE]
Staphylococcus aureus [1]
  MIC: 2 µg/mL
Micrococcus luteus
  MIC: 0.5 µg/mL
Staphylococcus aureus [2]
  MIC: 2 µg/mL
Bacillus thuringiensis
  MIC: 0.5 µg/mL
Bacillus subtilis
  MIC: 0.5 µg/mL
